Common to all, as to type: cell-based
Experiment [1] deals with MEFs. The experiment in a line: Apoptosis by FACS in MEFs. The following applies: MEFs (normal non-cancer cells), 72 h; n=3. On the procedure: PRMT5 (P) or control (C) non-targeting siRNA was transfected into MEFs and cells harvested at 72 h post-transfection as indicated. Cell extracts were immunoblotted with anti-PRMT5 and anti-E2F-1. Actin levels served as the loading control.
MEFs were treated as described in 6c and thereafter analysed by FACS. In FIG. 6d the black bar represents the effect of C siRNA, and clear bar the effect of P siRNA; n=3.
(§1) Cells were transfected with the indicated expression vectors together with pBB14-GFP (for 48 h) to monitor transfection efficiency or siRNA (for 48 h or 72 h) with or without treatment of the DNA damage agent for the last 16 h. Then, cells were fixed and stained with propidium iodide and analyzed by Flow Cytometry.
For orientation: In flow cytometry, cells or beads pass a laser one at a time.

The subject of experiment [2] is SAOS2. The experiment in a line: Apoptosis (sub-G1) by FACS in SAOS2 cells with ectopic E2F-1. The conditions noted are these: SAOS2 with wild-type E2F-1 expression vector 1 μg, 72 h; n=3. On the procedure: PRMT5 (P) or control (C) non-targeting siRNA was transfected into SAOS2 together with an expression vector encoding wild-type E2F-1 (1 μg) as indicated, harvested at 72 h and processed as described in (a); n=3. […] This is consistent with the idea that PRMT5 mediates its effects through E2F-1.
as §1

The subject of experiment [3] is HCT116 p53+/+. The experiment in a line: Apoptosis (sub-G1) by FACS in HCT116 p53+/+ cells. The following applies: siRNA 25 nM, 72 h, n=3. On the procedure: (§2) PRMT5 (P) or control (C) non-targeting siRNA (25 nM) was transfected into HCT116 p53+/+ (i), HCT116 p53−/− (ii) or U2OS (iii) cells and the cells were harvested 72 h post-transfection and analysed by FACS. The graph represents the actual number of sub-G1 cells in the indicated conditions, and the immunoblot the level of PRMT5 and actin control; n=3.
as §1

In experiment [4] the target is PRMT5 (Homo sapiens, UniProt O14744). The experiment in a line: Ubiquitination assay in U2OS cells after siRNA. Further details: The indicated GST proteins were incubated with U2OS cell lysate; endogenous in cells; host or cells: U2OS. The following applies: PRMT5 vs control siRNA, MG132 20 nM 4 h. On the procedure:
U2OS cells were transfected with PRMT5 (P) or control (C) siRNA. After 24 h, cells were transfected with expression vectors encoding wild-type (WT) E2F-1 or the KKK mutant (2 μg) and His 6-ubiquitin (4 μg) as indicated. Cells were treated with MG132 ([…]) for 4 h before being collected. Cell lysates and Ni2+ pull-down eluates were analysed as described. Quantitation of ubiquitin signals was performed using ImageJ 1.43u, and the input protein levels are shown underneath.
Cells were transfected with pcDNA3.1a-ubiquitin (His-tagged) and treated as described. Briefly cells were harvested into 8 M urea, 0.1 M Na2HPO4/NaH2PO4, 0.01 M Tris-HCl, and pH 8.0. Cell lysate was incubated with nickel (Ni^2+-NTA)-agarose beads (Qiagen), 5 mM imidazole and 10 mM β-mercapthoethanol overnight at 4° C. The beads were collected and washed as described (Liu and Warbrick, 2006). Bound proteins were then eluted and assayed by immunoblotting.

In experiment [5] the test system is PRMT5. The experiment in a line: PRMT5 depletion by siRNA in U2OS cells, E2F-1 and E2F target gene levels. An excerpt:
The depletion of PRMT5 co-incided with increased levels of E2F-1 protein (FIG. 3c), which is compatible with the increased level and stability of the KK and KKK mutants (FIG. 3b). […] Extracts were immunoblotted with anti-PRMT5 and E2F-1, and GAPDH levels served as a loading control.
Further, E2F-1 RNA was higher under conditions of PRMT5 depletion, contrasting with the control siRNA treatment. […] RNA was extracted from cells treated as described above, and RNA levels of E2F-1 examined. RNA levels of 18S and GAPDH served as controls. […] Extracts were immunoblotted with anti-PRMT5, E2F-1, p73, Chk2, Chk1 and Cdc2 as indicated. Levels of GAPDH served as the loading control.
FIGS. 6f and 6g address the role of one of the key E2F target genes in the PRMT5 dependent apoptosis, i.e. p73. […] PRMT5 (P) or control (C) siRNA was transfected into U2OS cells and cells harvested at 72 h post-transfection. Both RNA (i) and protein (ii) levels were measured, as indicated, for p73, 18S and GAPDH (i) and PRMT5, E2F-1, p73 and GAPDH (ii). […] This experiment supports activation of the E2F1 pathway leading to apoptosis upon PRMT5 knockdown, i.e. PRMT5 normally acts to suppress activation of the pathway.
Oligofectamine transfection reagent (Invitrogen) was used to transfect cells with siRNAs for 72 h. siRNA treatment of cells was carried out using siRNA non-targeting (Dharmacon) as control or PRMT5 (5′ […] (SEQ ID NO:1)). p73 smart pool siRNA was from Dharmacon. siRNA treatment was for 72 h at 50 nM.

Experiment [6] has as its system C33A cells. The experiment in a line: Apoptosis upon PRMT5 depletion in C33A cells. The conditions noted are these: PRMT5 vs control siRNA. The procedure:
(§3) The graph (i) represents the relative number of sub-G I cells (compared to the control treatment) in the indicated conditions; and (ii) the level of PRMT5 and E2F-1; n=3.
Cleaved PARP is indicated by the arrow.
as §1

Experiment [7] relates to U2OS cells. Description: Apoptosis (sub-G1) by FACS in U2OS cells. The conditions noted are these: n=3. On the procedure:
Whether arginine methylation influences E2F-1-dependent apoptosis was investigated by comparing the ability of wild-type E2F-1 to the KK and KKK mutants to induce cells with a sub-G1 DNA content (Stevens et al 2003). […] U2OS cells were transfected with expression vectors encoding wild-type E2F-1, KK and KKK as indicated for 48 h and analysed by FACS as described. The graph represents the relative change in sub-G1 populations compared to the empty vector control treatment; n=2.
as §3, §2
PRMT5 (P), E2F-1 (E) or control (C) non-targeting siRNA was transfected into U2OS cells and harvested 72 h post-transfection and analysed by FACS as described.
as §1

The subject of experiment [8] is p73-luciferase or cyclinE-luciferase. The experiment in a line: Reporter assay with E2F-responsive promoters. The following applies: U2OS cells, PRMT5 vs control siRNA, 48 h. The procedure: To further explore the role of arginine methylation in the transcription properties of E2F-1, wild-type E2F-1 was compared with the KK and KKK mutants in a reporter-based transfection assay, using E2F-responsive promoters derived from E2F target genes. The assay was performed under conditions in which each mutant protein was expressed at an equivalent level to wild-type E2F-1 (FIG. 4aii and bii), thus ruling out any difference in activity that could be attributed to protein levels. […] FIGS. 4a and b show the transcription properties of wild-type E2F-1, KK and KKK mutants. U2OS cells were transfected with expression vectors encoding WT or mutant E2F-1 protein, together with p73-luciferase (A) or cyclinE-luciferase (B) for 48 h as indicated, and pCMV-βgal to monitor transfection efficiency. Relative luciferase activity (luciferase/βgal) is shown together with expression level of ectopic proteins; n=3. […] PRMT5 (P) or control (C) non-targeting siRNA was transfected into U2OS cells together with p73-luciferase (i) or cyclinE-luciferase (ii) for 48 h, together with pCMV-βgal to monitor transfection efficiency. Relative luciferase activity is shown together with expression level of the ectopic proteins.
Cells were transfected with expression vectors (1 μg) encoding WT or the mutant E2F-1 proteins as indicated with E2F responsive luciferase reporters, namely p73-luciferase or cyclinE-luciferase, together with pCMV-βgal to monitor transfection efficiency. Cells were harvested, lysed 48 h post-transfection and luciferase activity measured as previously described (Janson et al 2008).
On the technique in general: In a reporter assay the amount or activity of a reporter protein is the signal.

The subject of experiment [9] is HCT116 p53−/−. Description: Apoptosis (sub-G1) by FACS in HCT116 p53−/− cells. The following applies: siRNA 25 nM, 72 h, n=3. On the procedure:
as §2, §1

Chain of PRMT5 (Homo sapiens, UniProt O14744) (O14744 whole entry): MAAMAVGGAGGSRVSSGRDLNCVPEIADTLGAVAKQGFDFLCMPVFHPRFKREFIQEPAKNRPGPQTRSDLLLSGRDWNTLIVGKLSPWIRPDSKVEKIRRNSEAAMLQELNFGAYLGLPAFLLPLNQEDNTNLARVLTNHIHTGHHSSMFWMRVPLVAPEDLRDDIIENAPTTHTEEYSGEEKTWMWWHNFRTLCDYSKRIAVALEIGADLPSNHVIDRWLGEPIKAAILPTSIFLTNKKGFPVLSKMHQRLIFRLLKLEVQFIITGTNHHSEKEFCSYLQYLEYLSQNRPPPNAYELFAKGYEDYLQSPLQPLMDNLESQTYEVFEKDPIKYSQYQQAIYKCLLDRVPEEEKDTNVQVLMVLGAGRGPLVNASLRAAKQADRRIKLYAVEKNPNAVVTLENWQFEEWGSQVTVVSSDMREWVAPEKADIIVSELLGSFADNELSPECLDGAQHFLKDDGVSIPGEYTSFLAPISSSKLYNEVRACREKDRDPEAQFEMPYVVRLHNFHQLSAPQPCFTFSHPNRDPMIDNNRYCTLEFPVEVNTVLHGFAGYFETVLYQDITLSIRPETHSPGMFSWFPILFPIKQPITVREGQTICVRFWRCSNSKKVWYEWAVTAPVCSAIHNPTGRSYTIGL

As for “5′ CCGCUAUUGCACCUUGGAA (SEQ ID NO:1) [PRMT5 siRNA]”, the apoptosis result in [1] is listed as “no apoptosis”; in experiment [2], “enhanced levels of apoptosis”; in [6] it was “increased level of apoptosis”. The “apoptosis (% sub-G1 cells)” value is “induces apoptosis” in [3]; “induces apoptosis” in experiment [7] (U2OS, siRNA 25 nM, 72 h); “induces apoptosis” in experiment [9]. Also, in experiment [4], the E2F-1 ubiquitination entry was “affects the ubiquitination of E2F-1”. The E2F-1 protein levels entry in experiment [5] (72 h, with or without etoposide 10 μM) is reported as “increases E2F-1 protein levels”. In addition, the “protein levels of E2F target genes (p73, Chk1, Chk2, Cdc2)” value in experiment [5] (72 h, with or without etoposide or doxorubicin) is “induced”. The “p73 RNA and protein levels” value in experiment [5] (72 h post-transfection) is recorded as “upregulated”. The “E2F-1 RNA levels” value in experiment [5] (contrasting with control siRNA) is recorded as “higher”. Besides, the “apoptosis (sub-G1 cells)” value in experiment [7] (U2OS cells, 72 h post-transfection, with or without etoposide 10 μM 16 h) is recorded as “increased level of apoptosis”. The “activity of E2F-1 responsive promoters” value in [8] is given as “more active”.

Source of the values: patent publication US8841274B2, “Protein arginine N-methyltransferase-5 method of cancer treatment” (priority 2009, dated 2014).
